Patent publication US9688624B2, “DP2 antagonist and uses thereof” (Brickell Biotech, Inc., priority 2010, dated 2017)
Where a name gives a salt, the structure may show the parent alone. Read-outs that look alike come from different tables or passages of the source.

What was measured:
CYP2C9 = CYP2C9 (Homo sapiens (Human), UniProt P11712); type: in vitro ADME; conditions: human hepatocytes, 10 μM
[1] = Plasma concentrations in mouse smoke model; type: in vivo
Experimental: (§1) BALB/c mice were exposed to the smoke of 7 unfiltered cigarettes per day via whole-body exposure on days 0, 1, and 2 for a total of 1.75 hours per day. […] The plasma concentrations for Compound 1 measured at trough were 85 and 588 nM at 10 mg/kg and 50 mg/kg, respectively.

[2] = Gravimetric vapour sorption (GVS); type: physicochemical; conditions: 25° C.
Experimental: Example 5: Gravimetric Vapour Sorption (GVS)
Sorption isotherms were obtained using a SMS DVS Intrinsic moisture sorption analyzer, controlled by SMS Analysis Suite software. The sample temperature was maintained at 25° C. by the instrument controls. The humidity was controlled by mixing streams of dry and wet nitrogen, with a total flow rate of 200 ml·min-1. The relative humidity was measured by a calibrated Rotronic probe (dynamic range of 1.0-100% RH), located near the sample. The weight change, (mass relaxation) of the sample as a function of % RH was constantly monitored by the microbalance (accuracy ±0.005 mg). Typically 5-20 mg of sample was placed in a tared mesh stainless steel basket under ambient conditions. The sample was loaded and unloaded at 40% RH and 25° C. (typical room conditions). A moisture sorption isotherm was performed as outlined below (2 scans giving 1 complete cycle). The standard isotherm was performed at 25° C. at 10% RH intervals over a 0.5-90% RH range

[3] = Capsule formulation pharmacokinetics in male Beagle dogs; type: in vivo; conditions: dog, fasted; for half-life: read-out: t1/2 24 hr (converted)
Experimental: In a separate study, male Beagle dogs were dosed with the capsule formulations as described herein.

[4] = test system: smoke-induced pulmonary inflammation; test: Mouse smoke model of chronic obstructive pulmonary disease; type: in vivo; conditions: 10 and 50 mg/kg PO daily
Experimental: Example 21: Mouse Smoke Model of Chronic Obstructive Pulmonary Disease
A mouse model of acute cigarette smoke exposure was used to determine the effects of Compound 1 on smoke-induced pulmonary inflammation.
as §1

[5] = Phase I single ascending dose study in humans, pharmacokinetics; type: in vivo, human; conditions: for half-life / AUC(0-inf) / AUC(0-t) / Cmax / Tmax / Vd/F: human, plasma; for Vd/F: read-out: Vz/F
Excerpt: Example 22: Phase I Study in Humans
This is a phase 1, Single-Center, Double-Blind Study of Compound 2 in healthy volunteers.
To assess: (1) the safety and tolerability of single and multiple doses of Compound 2 following oral administration; and (2) the pharmacokinetics (PK) of Compound 2 after single and multiple doses; and (3) the effects of the pharmacodynamic (PD) responses in healthy subjects to Compound 2 as measured by a PGD2-induced eosinophil shape change assay (ESC).
The Single Ascending Dose (SAD) study will include 6 cohorts with 8 subjects each, 6 receiving the active treatment and 2 receiving the placebo. The SAD study will explore doses of 5, 15, 50, 150, 300 and 500 mg/day. Compound 2 (Pattern 1) is administered as API in a Capsule, prepared on site at the clinical pharmacy (see Example 10). Safety monitoring will include: a “how do you feel” (HDYF) question, adverse events reporting, physical examinations, vital signs, ECG's, and a biological assessment (clinical chemistry, hematology and urinalysis). The decision to escalate to the next dose level will be based on the results of medical monitoring, and a blinded interim analysis of pharmacokinetic parameters (AUC, Cmax) and pharmacodynamic responses. Doses may be adjusted based on the occurrence of adverse events. Subjects will be followed on site for 72 hours after dose administration.
The plasma concentrations of Compound 1 are determined by LC-MS/MS, giving a detection limit of 0.25 ng*mL^−1.
Pharmacokinetic measurements of Compound 2 includes measurement of the protonated form (Compound 1).

[6] = male, Beagle, in vivo, po, Capsule, 5.6 mg/kg
[7] = male, Beagle, in vivo, po, EC-Capsule (L100-55), 5 mg/kg
[8] = male, Beagle, in vivo, IV saline, 2 mg/kg
[9] = single oral 5 mg capsule, healthy humans, mean
[10] = single oral 15 mg capsule, healthy humans, mean
[11] = single oral 50 mg capsule, healthy humans, mean
[12] = single oral 150 mg capsule, healthy humans, mean
[13] = single oral 300 mg capsule, healthy humans, mean
[14] = single oral 500 mg capsule, healthy humans, mean

COc1ccc(CC(=O)O)cc1Oc1ccc(NC(=O)C(C)(C)C)cc1CSC(C)(C)C [Compound 1, 2-(3-(2-((tert-butylthio)methyl)-4-(2,2-dimethyl-propionylamino)phenoxy)-4-methoxyphenyl)acetic acid]
induction of CYP2C9 (CYP2C9): not a strong inducer
plasma concentration for Compound 1 at trough ([1]; 10 mg/kg PO daily): 85 nM
plasma concentration for Compound 1 at trough ([1]; 50 mg/kg PO daily): 588 nM

COc1ccc(CC(=O)O)cc1Oc1ccc(NC(=O)C(C)(C)C)cc1CSC(C)(C)C [Compound 2, 2-(3-(2-((tert-butylthio)methyl)-4-(2,2-dimethyl-propionylamino)phenoxy)-4-methoxyphenyl)acetic acid, sodium salt]
hygroscopicity (GVS observation) ([2]; listed as Amorphous Compound 2, sodium salt): deliquesced
GVS mass change ([2]; at 80% R.H.): > 30 % w/w
CO ([3]; IV saline, 2 mg/kg): 10.3 µg/mL
ClPl ([3]; IV saline, 2 mg/kg): 5.0 mL/min/kg
AUC [3, 6]: 14300 ng·h/mL
Cmax [3, 6]: 4800 ng/mL
Tmax [3, 6]: 2.1 h
bioavailability [3, 6]: 78.6%
half-life [3, 6]: 2.8 h
AUC [3, 7]: 20900 ng·h/mL
Cmax [3, 7]: 14400 ng/mL
Tmax [3, 7]: 1 h
bioavailability [3, 7]: 128%
half-life [3, 7]: 2.4 h
AUC [3, 8]: 6500 ng·h/mL
Tmax [3, 8]: 0.1 h
Vd ([3]; male, Beagle, in vivo, IV saline, 2 mg/kg, read-out: VDss): 0.9 L/kg
half-life [3, 8]: 5.1 h
BALF lymphocytes [4]: trend toward reducing
decrease of BALF neutrophils compared to the untreated group [4]: approx. 50%
half-life ([5]; oral, humans, 150 and 500 mg dose, read-out: long elim. t1/2): ≤ 18 h
half-life ([5]; oral, humans, SAD study, read-out: half life, increases with dose): 1.2 to 7 h
AUC(0-inf) [5, 9]: 6.2 ng·h/mL
AUC(0-t) [5, 9]: 4.85 ng·h/mL
Cmax [5, 9]: 2.69 ng/mL
Tmax [5, 9]: 0.542 h
Vd/F [5, 9]: 1470 L
half-life ([5]; single oral 5 mg capsule, healthy humans, mean, read-out: t1/2 (converted)): 1.22 h
AUC(0-inf) [5, 10]: 17.5 ng·h/mL
AUC(0-t) [5, 10]: 17 ng·h/mL
Cmax [5, 10]: 8.31 ng/mL
Tmax [5, 10]: 0.625 h
Vd/F [5, 10]: 1760 L
half-life ([5]; single oral 15 mg capsule, healthy humans, mean, read-out: t1/2 (converted)): 1.23 h
Cmax [5, 11]: 93.4 ng/mL
Tmax [5, 11]: 1.2 h
Vd/F [5, 11]: 1500 L
half-life ([5]; single oral 50 mg capsule, healthy humans, mean, read-out: t1/2 (converted)): 1.49 h
AUC(0-inf) [5, 12]: 3460 ng·h/mL
AUC(0-t) [5, 12]: 3450 ng·h/mL
Cmax [5, 12]: 4630 ng/mL
Tmax [5, 12]: 0.542 h
Vd/F [5, 12]: 1410 L
half-life ([5]; single oral 150 mg capsule, healthy humans, mean, read-out: t1/2 (converted)): 7.86 h
AUC(0-inf) [5, 13]: 6980 ng·h/mL
AUC(0-t) [5, 13]: 6970 ng·h/mL
Cmax [5, 13]: 6690 ng/mL
Tmax [5, 13]: 0.92 h
Vd/F [5, 13]: 351 L
half-life ([5]; single oral 300 mg capsule, healthy humans, mean, read-out: t1/2 (converted)): 6.32 h
AUC(0-inf) [5, 14]: 26000 ng·h/mL
AUC(0-t) [5, 14]: 26000 ng·h/mL
Cmax [5, 14]: 25700 ng/mL
Tmax [5, 14]: 0.583 h
Vd/F [5, 14]: 501 L
half-life ([5]; single oral 500 mg capsule, healthy humans, mean, read-out: t1/2 (converted)): 14.1 h
CL/F [5, 9]: 886 L/h
λz [5, 9]: 0.598 h⁻¹
CL/F [5, 10]: 982 L/h
λz [5, 10]: 0.574 h⁻¹
CL/F [5, 11]: 643 L/h
λz [5, 11]: 0.485 h⁻¹
CL/F [5, 12]: 161 L/h
λz [5, 12]: 0.130 h⁻¹
CL/F [5, 13]: 53.4 L/h
λz [5, 13]: 0.19 h⁻¹
CL/F [5, 14]: 21.8 L/h
λz [5, 14]: 0.0904 h⁻¹
